Measured values as given in PubChem BioAssay AID192 (DTP/NCI, 2004).
Values joined by “and” are separate entries in the source; they are usually repeats but may differ in a detail not shown here. Identical values can stand only once. Toxic doses and inconclusive results are not listed.

System: BDF1 mice, B16 melanoma ip, median survival T/C
Assay: NCI In Vivo Anticancer Drug Screen. Data for tumor model B16 Melanoma (intraperitoneal) in B6D2F1 (BDF1) mice
Conditions: endpoint: median survival time, higher = longer survival
Procedure, shortened: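 Read-out: survival or tumor size, given as treated/control ratio. Controls received vehicle only; animals bore transplantable tumors.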

[1] = dose: 100.0 mg/kg/injection, schedule: Q01DX009 (ip), vehicle: Klucel (hydroxypropylcellulose) (HPC)
[2] = dose: 200.0 mg/kg/injection, schedule: Q01DX009 (ip), vehicle: Klucel (hydroxypropylcellulose) (HPC)
[3] = dose: 400.0 mg/kg/injection, schedule: Q01DX009 (ip), vehicle: Klucel (hydroxypropylcellulose) (HPC)
[4] = dose: 3.13 mg/kg/injection, schedule: Q01DX009 (ip), vehicle: saline
[5] = dose: 50.0 mg/kg/injection, schedule: Q01DX009 (ip), vehicle: Klucel (hydroxypropylcellulose) (HPC)
[6] = dose: 400.0 mg/kg/injection, schedule: Q01DX009 (ip), vehicle: saline
[7] = dose: 50.0 mg/kg/injection, schedule: Q04DX003 (ip), vehicle: Klucel (hydroxypropylcellulose) (HPC)
[8] = dose: 12.5 mg/kg/injection, schedule: Q01DX009 (ip), vehicle: saline with Tween-80
[9] = dose: 25.0 mg/kg/injection, schedule: Q01DX009 (ip), vehicle: saline with Tween-80
[10] = dose: 100.0 mg/kg/injection, schedule: Q01DX009 (ip), vehicle: saline
[11] = dose: 200.0 mg/kg/injection, schedule: Q01DX009 (ip), vehicle: saline
[12] = dose: 12.5 mg/kg/injection, schedule: Q01DX009 (ip), vehicle: saline
[13] = dose: 25.0 mg/kg/injection, schedule: Q01DX009 (ip), vehicle: saline
[14] = dose: 100.0 mg/kg/injection, schedule: Q04DX003 (ip), vehicle: Klucel (hydroxypropylcellulose) (HPC)
[15] = dose: 400.0 mg/kg/injection, schedule: Q04DX003 (ip), vehicle: Klucel (hydroxypropylcellulose) (HPC)
[16] = dose: 50.0 mg/kg/injection, schedule: Q01DX009 (ip), vehicle: saline
[17] = dose: 100.0 mg/kg/injection, schedule: Q01DX009 (ip), vehicle: saline with Tween-80

Cc1c(Cl)cccc1NC(=O)Oc1ccc(Cl)cc1
T/C [1]: 98 % of control
T/C [2]: 101 % of control
T/C [3]: 96 % of control

C=CCc1ccccc1C
T/C [1]: 104 % of control
T/C [2]: 105 % of control
T/C [3]: 90 % of control

Cc1sc2ccc(Cl)cc2[n+]1CCC(=O)O
T/C (dose: 100.0 mg/kg/injection, schedule: Q04DX003 (ip), vehicle: saline with Tween-80): 105 % of control
T/C (dose: 200.0 mg/kg/injection, schedule: Q04DX003 (ip), vehicle: saline with Tween-80): 107 % of control
T/C (dose: 400.0 mg/kg/injection, schedule: Q04DX003 (ip), vehicle: saline with Tween-80): 105 % of control

C[NH-].C[NH-].[Cl][Pt+2][Cl]
T/C (dose: 0.39 mg/kg/injection, schedule: Q01DX009 (ip), vehicle: saline): 102 % of control
T/C (dose: 0.78 mg/kg/injection, schedule: Q01DX009 (ip), vehicle: saline): 104 % of control
T/C (dose: 1.56 mg/kg/injection, schedule: Q01DX009 (ip), vehicle: saline): 112 % of control
T/C [4]: 121 % of control
T/C (dose: 8.0 mg/kg/injection, schedule: Q01DX009 (ip), vehicle: saline with Tween-80): 154 % of control

NC(CCCC(=O)O)P(=O)(O)O (stereo unspecified)
T/C [5]: 98 % of control
T/C [1]: 98 % of control

O=NN(CCF)C(=O)NC1CCC(=O)NC1=O (stereo unspecified)
T/C (dose: 1.88 mg/kg/injection, schedule: Q01DX001 (ip), vehicle: saline): 105 % of control
T/C (dose: 7.5 mg/kg/injection, schedule: Q01DX001 (ip), vehicle: saline): 120 % of control
T/C (dose: 15.0 mg/kg/injection, schedule: Q01DX001 (ip), vehicle: saline): 166 % of control
T/C (dose: 30.0 mg/kg/injection, schedule: Q01DX001 (ip), vehicle: saline): 189 % of control
T/C (dose: 60.0 mg/kg/injection, schedule: Q01DX001 (ip), vehicle: saline): 209 % of control

NCCN
T/C (dose: 177.0 mg/kg/injection, schedule: Q01DX009 (ip), vehicle: saline): 115 % of control
T/C (dose: 266.0 mg/kg/injection, schedule: Q01DX009 (ip), vehicle: saline): 96 % of control
T/C [6]: 105 % of control

CCCCCCCC(O)CCCC (stereo unspecified)
T/C [1]: 92 % of control
T/C [2]: 98 % of control
T/C [3]: 86 % of control

Cc1c2ccncc2c(C)c2c1[nH]c1ccccc12
T/C (dose: 1.25 mg/kg/injection, schedule: Q01DX009 (ip), vehicle: saline): 109 % of control
T/C (dose: 1.25 mg/kg/injection, schedule: Q01DX009 (ip), vehicle: water): 102 % of control
T/C (dose: 2.5 mg/kg/injection, schedule: Q01DX009 (ip), vehicle: saline): 113 % of control
T/C (dose: 2.5 mg/kg/injection, schedule: Q01DX009 (ip), vehicle: water): 103 % of control and 110 % of control
T/C (dose: 5.0 mg/kg/injection, schedule: Q01DX009 (ip), vehicle: saline): 120 % of control
T/C (dose: 5.0 mg/kg/injection, schedule: Q01DX009 (ip), vehicle: water): 110 % of control and 114 % of control
T/C (dose: 8.0 mg/kg/injection, schedule: Q01DX005 (iv), vehicle: saline with Tween-80): 106 % of control
T/C (dose: 12.5 mg/kg/injection, schedule: Q04DX003 (ip), vehicle: distilled water + Tween-80): 117 % of control and 121 % of control
T/C (dose: 16.0 mg/kg/injection, schedule: Q01DX005 (ip), vehicle: saline with Tween-80): 171 % of control
T/C (dose: 16.0 mg/kg/injection, schedule: Q01DX005 (iv), vehicle: saline with Tween-80): 110 % of control
T/C (dose: 16.0 mg/kg/injection, schedule: Q01DX005 (oral), vehicle: saline with Tween-80): 110 % of control
T/C (dose: 25.0 mg/kg/injection, schedule: Q04DX003 (ip), vehicle: distilled water + Tween-80): 119 % of control
T/C (dose: 32.0 mg/kg/injection, schedule: Q01DX005 (ip), vehicle: saline with Tween-80): 191 % of control
T/C (dose: 32.0 mg/kg/injection, schedule: Q01DX005 (oral), vehicle: saline with Tween-80): 108 % of control
T/C [7]: 154 % of control
T/C (dose: 64.0 mg/kg/injection, schedule: Q01DX005 (oral), vehicle: saline with Tween-80): 117 % of control
T/C (dose: 100.0 mg/kg/injection, schedule: Q04DX003 (ip), vehicle: distilled water + Tween-80): 153 % of control

CCN(CC)Cc1cc2[nH]c3c4ccc(Cl)cc4ncc3c2cc1OC
T/C (dose: 6.25 mg/kg/injection, schedule: Q01DX009 (ip), vehicle: saline with Tween-80): 95 % of control
T/C [8]: 98 % of control
T/C [9]: 98 % of control

COCc1cc(C(C)(C)C)c(O)c(C(C)(C)C)c1
T/C [1]: 90 % of control
T/C [2]: 92 % of control
T/C [3]: 95 % of control

CC(C)NC(=O)N(c1ccccc1)c1ccccc1
T/C (dose: 75.0 mg/kg/injection, schedule: Q01DX009 (ip), vehicle: gum acacia): 99 % of control
T/C (dose: 150.0 mg/kg/injection, schedule: Q01DX009 (ip), vehicle: gum acacia): 103 % of control
T/C (dose: 300.0 mg/kg/injection, schedule: Q01DX009 (ip), vehicle: gum acacia): 99 % of control

OC1COCOC1 (tested in a mixture with another compound)
T/C [10]: 115 % of control
T/C [11]: 106 % of control
T/C [6]: 106 % of control

Cc1ccc(OC(=O)/C=C/C(=O)Oc2ccc(C)cc2)cc1
T/C (dose: 75.0 mg/kg/injection, schedule: Q04DX003 (ip), vehicle: Klucel (hydroxypropylcellulose) (HPC)): 89 % of control
T/C (dose: 150.0 mg/kg/injection, schedule: Q04DX003 (ip), vehicle: Klucel (hydroxypropylcellulose) (HPC)): 94 % of control
T/C (dose: 300.0 mg/kg/injection, schedule: Q04DX003 (ip), vehicle: Klucel (hydroxypropylcellulose) (HPC)): 100 % of control

O=C1C(=O)c2cccc3cccc1c23
T/C [12]: 88 % of control
T/C [13]: 94 % of control

O=C/C(Br)=C\c1ccccc1
T/C (dose: 25.0 mg/kg/injection, schedule: Q04DX003 (ip), vehicle: Klucel (hydroxypropylcellulose) (HPC)): 96 % of control
T/C [7]: 103 % of control
T/C [14]: 96 % of control

CCc1ccccc1NC(=O)NC(C)C
T/C [14]: 100 % of control
T/C (dose: 200.0 mg/kg/injection, schedule: Q04DX003 (ip), vehicle: Klucel (hydroxypropylcellulose) (HPC)): 110 % of control
T/C [15]: 100 % of control

Cc1cccc(NC(=O)COc2ccc(Cl)cc2)c1C
T/C [13]: 98 % of control
T/C [16]: 100 % of control
T/C [17]: 98 % of control
T/C [10]: 105 % of control

Cc1ccc(S(=O)(=O)N(CCCCN(S(=O)(=O)c2ccc(C)cc2)S(=O)(=O)c2ccc(C)cc2)S(=O)(=O)c2ccc(C)cc2)cc1
T/C [14]: 95 % of control
T/C [15]: 112 % of control

COc1ccc(NC2=C(C)C(=O)C3=C(C2=O)[C@H](COC(N)=O)[C@]2(OC)[C@@H]4N[C@@H]4CN32)cc1OC
T/C (dose: 3.0 mg/kg/injection, schedule: Q04DX003 (ip), vehicle: water): 223 % of control
T/C (dose: 6.0 mg/kg/injection, schedule: Q04DX003 (ip), vehicle: water): 312 % of control

O=C(Cl)c1ccccc1S(=O)(=O)N(CCOc1ccccc1)c1ccccc1
T/C [1]: 90 % of control
T/C [2]: 96 % of control
T/C [3]: 87 % of control

CN(C)N=Nc1ccc(S(N)(=O)=O)cc1
T/C (dose: 25.0 mg/kg/injection, schedule: Q01DX009 (ip), vehicle: Klucel (hydroxypropylcellulose) (HPC)): 116 % of control
T/C [5]: 111 % of control
T/C [1]: 98 % of control

COC(=O)C1=C(N)CCc2ccccc21
T/C [17]: 90 % of control
T/C (dose: 200.0 mg/kg/injection, schedule: Q01DX009 (ip), vehicle: saline with Tween-80): 95 % of control

CCN(CC)CC#CCCCCN(CC)CC
T/C [4]: 95 % of control
T/C (dose: 6.25 mg/kg/injection, schedule: Q01DX009 (ip), vehicle: saline): 97 % of control
T/C [12]: 90 % of control
T/C [16]: 89 % of control

Cc1ccc(NC(=O)COc2cc(Cl)c(Cl)cc2Cl)c([N+](=O)[O-])c1
T/C [1]: 93 % of control
T/C [2]: 100 % of control

Cc1cc(=O)[nH]o1
T/C [10]: 106 % of control
T/C [11]: 105 % of control
T/C [6]: 99 % of control

C=C1C(=O)OC2C1CC1OC2C(C)CCC/C(C)=C\CCC1(C)O (stereo unspecified)
T/C [8]: 97 % of control
T/C [9]: 101 % of control
T/C (dose: 50.0 mg/kg/injection, schedule: Q01DX009 (ip), vehicle: saline with Tween-80): 100 % of control
T/C [17]: 104 % of control
